Data as given in EPA's ToxValDB 9.5 (doi:10.2903/j.efsa.2016.4419).

How the values were obtained:
[1] = system: Rattus norvegicus; conditions: for LD50: acute, mortality
[2] = system: Colinus virginianus; conditions: acute, oral, mortality
[3] = system: Oncorhynchus mykiss; conditions: acute; duration: 96 hours; mortality
[4] = system: Apis mellifera; conditions: acute, mortality
[5] = system: Anas platyrhynchos
[6] = system: Pimephales promelas; conditions: chronic/long-term; duration: 36 days; clinical signs
[7] = system: Tagia sp.
[8] = system: Lepomis macrochirus; conditions: acute; duration: 96 hours; mortality
[9] = system: Mus musculus; conditions: reproduction developmental; organ weight
[10] = system: Folsomia candida; conditions: chronic/long-term; duration: 14 days; reproduction
[11] = system: Daphnia pulex; conditions: chronic/long-term; duration: 21 days; reproduction

SMILES | LD50 [1] [mg/kg] | LC50 ([2]; diet) [mg/kg] | LD50 [2] [mg/kg] | LC50 [3] [µg/mL] | LD50 ([4]; dermal) [µg/piece] | LD50 ([4]; oral, unspecified) [µg/piece] | NOEL ([5]; reproductive) [mg/kg-day] | LC50 ([5]; short-term, oral, feed, mortality) [mg/kg] | NOEC [6] [mg/L] | LC50 ([7]; acute, mortality) [mg/kg] | NOEC ([7]; chronic/long-term, reproduction) [mg/kg] | LC50 [8] [µg/mL] | LD50 ([1]; oral) [mg/kg] | NOEL ([1]; reproduction developmental, organ weight) [mg/kg-day] | NOAEL [9] [mg/kg-day] | NOEC [10] [mg/kg] | NOEC [11] [mg/L]
CS(=O)(=O)c1ccc(C(=O)O)c(N)c1 [2-Amino-4-(methylsulfonyl)benzoic acid] | > 5000 |  |  |  |  |  |  |  |  |  |  |  |  |  |  |  | 
CS(=O)(=O)c1ccc(C(=O)C2C(=O)CCCC2=O)c([N+](=O)[O-])c1 [Mesotrione] |  | > 5200 | > 2000 | > 120 | 52.5 | > 11 | 20.6 | > 5200 | 12.5 | > 2000 | 10.8 | > 120 | > 5000 | 0.3 | 2 | 50.5 | 180
